Columns and labels:
Stat5 = Stat5 activation by FLT-3 ligand in OC1-AML5 cells (IP/Western, Western, gel shift); format: cell-based; conditions: FLT-3 ligand stimulated
Source text: Activation of downstream pathways by FLT-3 ligand was also investigated, specifically for Stat5 and erk. Stat5 and Erk are downstream mediators of RTK signaling, and may provide readouts for FLT-3 signaling. Stat 5 is a transcription factor which regulates many genes involves in cell survival and proliferation. Erk½ are kinases on the Raf signaling pathway.

Wild-type FLT-3 = target: T1, Wild-type FLT-3 (Homo sapiens, UniProt P36888); assay: FLT-3 phosphorylation by immunoprecipitation/Western in RS411 cells; format: cell-based; on Wild-type FLT-3 (inhibition of phosphorylation): key: +++: very strong inhibition; ++: inhibition; +/−: weak inhibition; −: no inhibition
T1 construct: host or cells: RS411 (RS4;11)
T1 sequence (P36888 27-993): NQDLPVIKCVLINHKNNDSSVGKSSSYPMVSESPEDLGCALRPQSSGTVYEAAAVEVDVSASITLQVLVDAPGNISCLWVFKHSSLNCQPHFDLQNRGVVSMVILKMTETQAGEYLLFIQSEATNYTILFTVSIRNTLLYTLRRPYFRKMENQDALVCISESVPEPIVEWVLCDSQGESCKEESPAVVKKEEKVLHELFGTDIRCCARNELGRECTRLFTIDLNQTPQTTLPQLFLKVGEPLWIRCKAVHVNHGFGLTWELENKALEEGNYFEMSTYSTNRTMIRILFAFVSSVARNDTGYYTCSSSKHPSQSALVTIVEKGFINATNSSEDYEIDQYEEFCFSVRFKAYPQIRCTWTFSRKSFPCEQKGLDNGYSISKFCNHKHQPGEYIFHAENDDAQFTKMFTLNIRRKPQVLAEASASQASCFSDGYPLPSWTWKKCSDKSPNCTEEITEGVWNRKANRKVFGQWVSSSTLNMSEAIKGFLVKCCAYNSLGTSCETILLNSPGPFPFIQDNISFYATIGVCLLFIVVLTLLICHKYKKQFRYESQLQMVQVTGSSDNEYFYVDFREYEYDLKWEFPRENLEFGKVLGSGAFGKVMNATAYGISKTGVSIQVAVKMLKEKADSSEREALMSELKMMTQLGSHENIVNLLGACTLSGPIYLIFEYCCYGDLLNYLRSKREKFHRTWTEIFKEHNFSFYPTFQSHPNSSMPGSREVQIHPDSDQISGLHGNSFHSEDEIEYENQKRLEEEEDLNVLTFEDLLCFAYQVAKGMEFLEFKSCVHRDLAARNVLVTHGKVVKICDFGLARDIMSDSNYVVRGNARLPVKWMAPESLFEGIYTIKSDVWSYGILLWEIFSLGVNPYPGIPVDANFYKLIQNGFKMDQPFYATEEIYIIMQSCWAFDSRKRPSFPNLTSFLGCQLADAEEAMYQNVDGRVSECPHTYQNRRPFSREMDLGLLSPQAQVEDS
Experimental: FLT-3 was immunoprecipitated from lysates with a commercially available antibody. Proteins were separated by SDS-polyacrylamide gel electrophoresis, transferred to membranes analyzed by Western blotting for phosphotyrosine and subsequently for total FLT-3 protein as control. […]
Immunoprecipitation and Western Blot (IP/W) analysis: Cells were lysed in lysis buffer (20 mM Tris, pH 7.5; 137 mM NaCl; 10% glycerol; 1% NP-40; 0.1% SDS; 2 mM EDTA) containing protease and phosphatase inhibitors (50 mM sodium fluoride, 1 mM sodium orthovanadate, 2 mM Pefabloc, […], […], […], 4 mM leupeptin, and 4 mM pepstatin A). Equivalent amounts of protein were separated by SDS-PAGE, then transferred to nitrocellulose membranes. For analysis of FLT3 phosphorylation, equivalent amounts of protein from each sample were immunoprecipitated overnight at 4*C. with an agarose-conjugated anti-FLT3 antibody (Santa Cruz Biotechnology, Santa Cruz, Calif.). Immune complexes were washed (150 mM NaCl, 1.5 mM MgCl2, 50 mM HEPES, pH 7.5, 10% glycerol, 0.1% Triton X-100, and 1 mM EGTA) and following SDS-PAGE, proteins were transferred to nitrocellulose membranes. Membranes were probed with an anti-phosphotyrosine antibody (Upstate, Lake Placid, N.Y. or Transduction Laboratories, Lexington, Ky.) and then stripped with Restore Western Blot Stripping Buffer (Pierce, Rockford, Ill.). Membranes were reprobed with an anti-FLT3 antibody (Santa Cruz Biotechnology). Stat5 antibodies for immunprecipitation and Western blot analysis were from Upstate Biotechnology and Transduction labs respectively.

OC1-AML5 cell line = assay: Cell viability (trypan blue) and proliferation (alamar blue) with FLT-3 ligand; format: cell-based; conditions: trypan blue and alamar blue assays
Source text: The first cell line used was the OC1-AML5 cell line known to express the FLT-3 tyrosine kinase. This cell line was maintained in conventional medium containing cytokines to maintain growth in liquid culture. This cell line provides a model to assess activation and inhibition of FLT-3 signaling by FLT-3 ligand and compounds which may inhibit FLT-3. The biological consequences of FLT-3 can be assessed with this cell line.
The OC1-AML5 cell line which express FLT-3-wild type was obtained (Pharmacia).

VEGF = assay: Plasma VEGF by ELISA; format: in vivo; conditions: plasma of NOD-SCID mice
Experimental: At experimental endpoints, mice were anesthetized, followed by terminal blood collection via intracardiac puncture. Bone marrow cell suspensions were prepared by flushing mouse femurs with cold, sterile PBS. For all studies, a paired Student's t test was used to assess differences between treated and control groups (P<0.05 was considered significant).
Plasma from the NOD-SCID mice described above was analyzed by ELISA for VEGF protein levels using a commercially available kit.

FLT-3 = target: T2, FLT-3 (Homo sapiens, UniProt P36888); assay: FLT-3 ligand stimulated FLT-3 phosphorylation in OC1-AML5 cells; format: cell-based; conditions: FLT-3 ligand stimulated OC1-AML5 cells
T2 construct: The OC1-AML5 cell line which express FLT-3-wild type was obtained (Pharmacia); host or cells: OC1-AML5
T2 sequence (P36888 27-993): T1 sequence (P36888 27-993)
Source text: Cells were stimulated with FLT-3 ligand and lysed. FLT-3 was immunoprecipitated from lysates with a commercially available antibody. Proteins were separated by SDS-polyacrylamide gel electrophoresis, transferred to membranes and analyzed by Western blotting for phosphotyrosine and subsequently for total FLT-3 protein as control.

MV4; 11 = assay: VEGF production, MV4;11 cells; format: cell-based; conditions: for VEGF %: 0 uM = 100

## CCN(CC)CCNC(=O)c1c(C)[nH]c(/C=C2\C(=O)Nc3ccc(F)cc32)c1C [Compound 1, 5-(5-Fluoro-2-oxo-1,2-dihydro-indol-3-ylidenemethyl)-2,4-dimethyl-1H-pyrrole-3-carboxylic acid(2-diethylamino-ethyl)-amide]
Stat5
  Stat5 activity: inhibited
Wild-type FLT-3; RS411 cells, IP/Western
  Wild-type FLT-3 (inhibition of phosphorylation): ++
Wild-type FLT-3; in words
  inhibition of wild-type FLT-3 phosphorylation: inhibits
OC1-AML5 cell line
  inhibition of FLT-3 ligand increased cell numbers: some inhibition
VEGF
  VEGF in plasma (mean): 49 pg/mL
FLT-3
  FLT-3 phosphorylation: decreased
MV4; 11; CMPD 1 0.00 uM
  VEGF mean sd: 287.8
  VEGF %: 83.0%
MV4; 11; CMPD 1 0.01 uM
  VEGF mean sd: 65.4
  VEGF %: 18.9%
MV4; 11; CMPD 1 0.1 uM
  VEGF mean sd: 31.2
  VEGF %: 9.0%
MV4; 11; CMPD 1 1 uM
  VEGF mean sd: 30.5
  VEGF %: 8.8%
MV4; 11; CMPD 1 10 uM
  VEGF mean sd: 23.3
  VEGF %: 6.7%

— patent US20030130280A1, “Treatment of acute myeloid leukemia with indolinone compounds” (SUGEN, Inc., priority 2001, published 2003)
